Laboratory results from ChEMBL document CHEMBL3616390, “Design and synthesis of N-[6-(Substituted Aminoethylideneamino)-2-Hydroxyindan-1-yl]arylamides as selective and potent muscarinic M₁ agonists” (Bioorg Med Chem Lett, 2015).

Assays:
Format in all cases: functional, cell-based
[1] = target: T1, Muscarinic acetylcholine receptor M1 (Homo sapiens, UniProt P11229); experiment: Agonist activity at human muscarinic M1 receptor expressed in CHO cells after 30 mins by GTPgamma35S binding assay
T1 sequence (P11229 whole entry): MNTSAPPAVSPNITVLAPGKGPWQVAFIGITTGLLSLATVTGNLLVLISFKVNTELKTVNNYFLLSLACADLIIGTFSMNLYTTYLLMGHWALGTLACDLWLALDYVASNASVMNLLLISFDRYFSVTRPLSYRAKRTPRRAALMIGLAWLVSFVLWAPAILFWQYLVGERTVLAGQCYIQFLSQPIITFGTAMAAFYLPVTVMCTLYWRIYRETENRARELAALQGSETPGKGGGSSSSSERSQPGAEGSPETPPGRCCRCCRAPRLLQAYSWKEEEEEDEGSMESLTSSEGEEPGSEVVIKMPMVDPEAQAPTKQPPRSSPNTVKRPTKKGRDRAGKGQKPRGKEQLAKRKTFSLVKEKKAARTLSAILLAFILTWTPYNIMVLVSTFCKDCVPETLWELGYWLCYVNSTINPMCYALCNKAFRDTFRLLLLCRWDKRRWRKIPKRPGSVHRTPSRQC

[2] = target: T2, Muscarinic acetylcholine receptor M3 (Homo sapiens, UniProt P20309); experiment: Agonist activity at human muscarinic M3 receptor expressed in CHO cells after 30 mins by GTPgamma35S binding assay
Target sequence in this assay (P20309 whole entry): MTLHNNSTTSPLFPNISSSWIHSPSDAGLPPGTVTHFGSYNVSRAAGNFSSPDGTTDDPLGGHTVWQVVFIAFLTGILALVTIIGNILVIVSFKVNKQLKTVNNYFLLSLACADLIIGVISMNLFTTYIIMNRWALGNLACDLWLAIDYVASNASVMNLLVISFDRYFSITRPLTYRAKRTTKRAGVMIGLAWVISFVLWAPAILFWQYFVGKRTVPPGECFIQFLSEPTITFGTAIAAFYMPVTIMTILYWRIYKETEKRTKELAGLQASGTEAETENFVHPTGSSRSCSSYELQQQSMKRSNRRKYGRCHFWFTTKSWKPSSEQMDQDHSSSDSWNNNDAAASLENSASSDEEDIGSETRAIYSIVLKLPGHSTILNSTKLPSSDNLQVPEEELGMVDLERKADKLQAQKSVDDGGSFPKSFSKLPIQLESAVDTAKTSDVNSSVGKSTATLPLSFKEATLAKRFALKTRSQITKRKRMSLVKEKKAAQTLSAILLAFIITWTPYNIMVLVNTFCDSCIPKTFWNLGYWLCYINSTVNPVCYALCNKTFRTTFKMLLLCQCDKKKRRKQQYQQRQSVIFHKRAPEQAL

[3] = target: T3, Muscarinic acetylcholine receptor M5 (Homo sapiens, UniProt P08912); experiment: Agonist activity at human muscarinic M5 receptor expressed in CHO cells after 30 mins by GTPgamma35S binding assay
T3 sequence (P08912 whole entry): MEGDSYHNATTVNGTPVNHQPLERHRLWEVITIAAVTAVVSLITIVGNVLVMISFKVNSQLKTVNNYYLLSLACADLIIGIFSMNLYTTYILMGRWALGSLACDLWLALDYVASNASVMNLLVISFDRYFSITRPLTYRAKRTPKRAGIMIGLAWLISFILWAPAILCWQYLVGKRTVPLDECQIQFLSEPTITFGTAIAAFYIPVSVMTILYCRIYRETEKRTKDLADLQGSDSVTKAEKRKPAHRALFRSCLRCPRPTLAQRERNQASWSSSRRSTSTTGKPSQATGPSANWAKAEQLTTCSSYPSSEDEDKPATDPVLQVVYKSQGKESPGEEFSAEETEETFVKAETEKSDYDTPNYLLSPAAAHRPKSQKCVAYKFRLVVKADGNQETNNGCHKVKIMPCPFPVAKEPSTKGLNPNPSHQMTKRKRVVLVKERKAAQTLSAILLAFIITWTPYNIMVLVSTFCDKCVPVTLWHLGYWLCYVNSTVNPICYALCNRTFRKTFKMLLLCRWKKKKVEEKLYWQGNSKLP

[4] = target: T4, Muscarinic acetylcholine receptor M1 (Homo sapiens) (UniProt P11229); experiment: Agonist activity at human muscarinic M1 receptor expressed in CHO cells after 30 mins by GTPgamma35S binding assay relative to oxotremorine-M
T4 sequence (whole entry): T1 sequence (P11229 whole entry)

[5] = target: T5, Muscarinic acetylcholine receptor M2 (Homo sapiens) (UniProt P08172); experiment: Agonist activity at human muscarinic M2 receptor expressed in CHO cells after 30 mins by GTPgamma35S binding assay relative to oxotremorine-M
T5 sequence (whole entry): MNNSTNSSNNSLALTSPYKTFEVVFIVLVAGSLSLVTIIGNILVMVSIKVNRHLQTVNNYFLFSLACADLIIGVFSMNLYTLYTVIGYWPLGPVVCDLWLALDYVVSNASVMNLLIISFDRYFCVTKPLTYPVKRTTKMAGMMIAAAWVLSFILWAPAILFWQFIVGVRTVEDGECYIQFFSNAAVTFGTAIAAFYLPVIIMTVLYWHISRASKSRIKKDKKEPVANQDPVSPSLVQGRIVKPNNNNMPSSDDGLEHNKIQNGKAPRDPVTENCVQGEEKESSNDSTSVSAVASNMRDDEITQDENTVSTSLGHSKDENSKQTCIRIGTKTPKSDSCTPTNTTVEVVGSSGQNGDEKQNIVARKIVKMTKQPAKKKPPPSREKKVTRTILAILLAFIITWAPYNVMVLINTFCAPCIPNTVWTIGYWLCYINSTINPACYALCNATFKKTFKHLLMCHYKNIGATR

[6] = target: T6, Muscarinic acetylcholine receptor M4 (Homo sapiens) (UniProt P08173); experiment: Agonist activity at human muscarinic M4 receptor expressed in CHO cells after 30 mins by GTPgamma35S binding assay relative to oxotremorine-M
T6 sequence (whole entry): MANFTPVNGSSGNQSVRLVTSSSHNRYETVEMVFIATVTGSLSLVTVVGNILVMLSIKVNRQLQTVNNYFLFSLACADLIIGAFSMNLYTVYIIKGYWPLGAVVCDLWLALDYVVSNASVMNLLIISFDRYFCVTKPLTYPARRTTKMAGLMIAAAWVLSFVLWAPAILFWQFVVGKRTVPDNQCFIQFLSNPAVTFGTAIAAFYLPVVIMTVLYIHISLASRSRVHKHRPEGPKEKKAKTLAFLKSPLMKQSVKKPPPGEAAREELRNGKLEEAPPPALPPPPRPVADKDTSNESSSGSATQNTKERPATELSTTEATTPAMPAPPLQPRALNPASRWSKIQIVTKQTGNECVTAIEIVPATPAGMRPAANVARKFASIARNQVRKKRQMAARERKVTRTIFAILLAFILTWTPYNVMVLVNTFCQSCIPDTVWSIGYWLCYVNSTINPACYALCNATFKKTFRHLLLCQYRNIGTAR

[7] = target: T7, Muscarinic acetylcholine receptor M2 (Homo sapiens, UniProt P08172); experiment: Agonist activity at human muscarinic M2 receptor expressed in CHO cells after 30 mins by GTPgamma35S binding assay
T7 sequence (P08172 whole entry): T5 sequence (whole entry)

[8] = target: T8, Muscarinic acetylcholine receptor M4 (Homo sapiens, UniProt P08173); experiment: Agonist activity at human muscarinic M4 receptor expressed in CHO cells after 30 mins by GTPgamma35S binding assay
T8 sequence (P08173 whole entry): T6 sequence (whole entry)

[9] = target: T5, Muscarinic acetylcholine receptor M2 (Homo sapiens); experiment: Agonist activity at human muscarinic M2 receptor expressed in CHO cells after 30 mins by GTPgamma35S binding assay relative to acetylcholine
[10] = target: T2, Muscarinic acetylcholine receptor M3; experiment: Agonist activity at human muscarinic M3 receptor expressed in CHO cells after 30 mins by GTPgamma35S binding assay relative to acetylcholine
Target sequence in this assay (P20309 whole entry, looked up): as the sequence (P20309 whole entry) above

[11] = target: T6, Muscarinic acetylcholine receptor M4 (Homo sapiens); experiment: Agonist activity at human muscarinic M4 receptor expressed in CHO cells after 30 mins by GTPgamma35S binding assay relative to acetylcholine
[12] = target: T9, Muscarinic acetylcholine receptor M5 (Homo sapiens) (UniProt P08912); experiment: Agonist activity at human muscarinic M5 receptor expressed in CHO cells after 30 mins by GTPgamma35S binding assay relative to acetylcholine
T9 sequence (whole entry): T3 sequence (P08912 whole entry)

Compound | EC50 [1] | EC50 ([2]; cho) | EC50 ([3]; cho) | Efficacy [4] | Efficacy [5] | Efficacy [6] | EC50 [7] | EC50 [8] | Efficacy [9] | EC50 ([2]; read-out: EC50) | Efficacy [10] | Efficacy [11] | EC50 ([3]; read-out: EC50) | Efficacy [12]
COc1ccc(CN/C(C)=N/c2ccc3c(c2)[C@@H](NC(=O)c2ccc(Br)cc2)[C@H](O)C3)cc1 | 837 nM | Not Active | Not Active | 32.1% | < 20% | < 20% |  |  |  |  |  |  |  | 
C/C(=N\c1ccc2c(c1)[C@@H](NC(=O)c1ccc(F)cc1)[C@H](O)C2)N(C)Cc1ccc(F)cc1 | 392 nM | Not Active | Not Active | 76.6% | 43.6% | 28.4% | 242 nM | 392 nM |  |  |  |  |  | 
C/C(=N\c1ccc2c(c1)[C@@H](NC(=O)c1ccc(Br)cc1)[C@H](O)C2)N(C)Cc1ccc(F)cc1 | 154 nM | Not Active | Not Active | 107% | 30.9% | 34.3% | 604 nM | 3720 nM |  |  |  |  |  | 
CO/N=C(\C#N)[C@H]1CN2CCC1CC2 [SABCOMELINE] | 63.6 nM |  |  |  |  |  | 62.1 nM | 214 nM | 87.7% | 117 nM | 28.3% | 21.3% | 123 nM | 38.9%
COc1ccc(C(=O)N[C@@H]2c3cc(/N=C(\C)N(C)Cc4ccc(F)cc4)ccc3C[C@H]2O)cc1 | 166 nM | Not Active | Not Active | 93.2% | < 20% | < 20% |  |  |  |  |  |  |  | 
COc1ccccc1CN/C(C)=N/c1ccc2c(c1)[C@@H](NC(=O)c1ccc(Br)cc1)[C@H](O)C2 | 572 nM | Not Active | Not Active | 71.5% | < 20% | < 20% |  |  |  |  |  |  |  | 
C/C(=N\c1ccc2c(c1)[C@@H](NC(=O)c1ccc(C(F)(F)F)cc1)[C@H](O)C2)N(C)Cc1ccc(F)cc1 | 36 nM | Not Active | Not Active | 106% | 25.4% | 30.8% | 172 nM | 393 nM |  |  |  |  |  | 
C/C(=N\c1ccc2c(c1)[C@@H](NC(=O)c1ccc(Br)cc1)[C@H](O)C2)NCc1cccc(F)c1 | 48.4 nM | Not Active | Not Active | 94% | 26.6% | 33.4% | 435 nM | 355 nM |  |  |  |  |  | 
C/C(=N\c1ccc2c(c1)[C@@H](NC(=O)c1ccc(Br)cc1)[C@H](O)C2)NCCc1ccc(F)cc1 | 183 nM | Not Active | Not Active | 90.6% | 38.5% | < 20% | 211 nM |  |  |  |  |  |  | 
C#CCO[C@H]1CN2CCC1CC2 [TALSACLIDINE] | 820 nM |  |  |  |  |  | 849 nM | 844 nM | 94.4% | 2700 nM | 26.1% | 22.2% | 422 nM | 23.7%
C/C(=N\c1ccc2c(c1)[C@@H](NC(=O)c1ccc(Br)cc1)[C@H](O)C2)NCc1ccccc1F | 87 nM | Not Active | Not Active | 78.5% | 33.6% | 25.7% | 118 nM | 227 nM |  |  |  |  |  | 
O=C(N[C@@H]1c2cc(/N=C(/Nc3ccc(F)cc3)C(F)(F)F)ccc2C[C@H]1O)c1ccc(Br)cc1 |  | Not Active | Not Active | < 20% | < 20% | < 20% |  |  |  |  |  |  |  | 
COc1ccc(CCN/C(C)=N/c2ccc3c(c2)[C@@H](NC(=O)c2ccc(Br)cc2)[C@H](O)C3)cc1 | 426 nM | Not Active | Not Active | 84.5% | 38.9% | 29.9% | 411 nM | 1360 nM |  |  |  |  |  | 
COc1cccc(CN/C(C)=N/c2ccc3c(c2)[C@@H](NC(=O)c2ccc(Br)cc2)[C@H](O)C3)c1 | 198 nM | Not Active | Not Active | 60% | < 20% | < 20% |  |  |  |  |  |  |  | 
CCn1nnc(C2=CCCN(C)C2)n1 |  |  |  |  |  |  |  |  | 49.2% |  | < 20% | < 20% |  | < 20%
COc1ccc(N/C(C)=N/c2ccc3c(c2)[C@@H](NC(=O)c2ccc(Br)cc2)[C@H](O)C3)cc1 | 105 nM | Not Active | Not Active | 35.3% | < 20% | < 20% |  |  |  |  |  |  |  | 
C/C(=N\c1ccc2c(c1)[C@@H](NC(=O)c1ccc(Cl)cc1)[C@H](O)C2)N(C)Cc1ccc(F)cc1 | 31 nM | Not Active | Not Active | 112% | 45% | 42.8% | 65.5 nM | 405 nM |  |  |  |  |  | 
CC(=O)OCC[N+](C)(C)C |  |  |  |  |  |  |  |  |  |  | 117% | 93.4% |  | 110%
C/C(=N\c1ccc2c(c1)[C@@H](NC(=O)c1ccc(Br)cc1)[C@H](O)C2)N(C)CCc1ccc(F)cc1 | 80.9 nM | Not Active | Not Active | 68.5% | 20.8% | < 20% | 342 nM |  |  |  |  |  |  | 
CCCCCCOc1nsnc1C1=CCCN(C)C1 |  |  |  |  |  |  |  |  | 83.5% |  | < 20% | 48.7% |  | 25.9%
C/C(=N\c1ccc2c(c1)[C@@H](NC(=O)c1ccc(C)cc1)[C@H](O)C2)N(C)Cc1ccc(F)cc1 | 49.5 nM | Not Active | Not Active | 106% | 45.1% | 41.5% | 65.4 nM | 235 nM |  |  |  |  |  | 
